This note sets out measurements from ChEMBL document CHEMBL1201862, “PubChem BioAssay data set” (2004).

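Cultured in 96-well plates, cells were exposed to test compound for 48 hours across five concentrations. GI50: concentration for 50% inhibition of growth.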 Calls of active or inactive are those of the source. No stated cut-off is given here; in the data, active = GI50 up to about 1.1 µM and inactive = higher.

Some test systems named below: SNB-78; ACHN; DMS-273; HOP-92; M14; KM-20L2; SK-OV-3; DMS-114; A549; KM12; XF498; SR; RXF 393; PC-3; MDA-N; BT-549; MDA-MB-231; NCI/ADR-RES; DU-145; Hs-578T.
What all share (experiment): DTP human tumour cell line panel, 48 h

As to `O=C(O)C1CCC(=O)N1C(=O)COc1cc(Cl)c(Cl)cc1Cl` (configuration not stated), the GI50 is > 100 µM (inactive) with SNB-78; > 100 µM (inactive) in the assay with ACHN; > 100 µM (inactive) with DMS-273; 82 µM (inactive) in the assay on HOP-92; > 100 µM (inactive) in the assay with M14; > 100 µM (inactive) with KM-20L2. For the same molecule, the GI50 with SK-OV-3, in the assay with DMS-114, in the assay with A549, with KM12 and with XF498 was > 100 µM (inactive) each time.

On to `CCOC(=O)C(C(=O)OCC)c1cc(-c2cc3ccccc3o2)oc(=O)c1C#N`, for which the GI50 is 24.5 µM (inactive) in the assay on SR; 18 µM (inactive) in the assay on SNB-78; 34.6 µM (inactive) with ACHN; 25.9 µM (inactive) in the assay with DMS-273; 19.6 µM (inactive) in the assay with RXF 393; 3.41 µM (inactive) in the assay with HOP-92. Further, the GI50 was 20.8 µM (inactive) in the assay on M14; 19.3 µM (inactive) with KM-20L2; 26.7 µM (inactive) in the assay on DMS-114; 33.4 µM (inactive) with A549; 35.6 µM (inactive) in the assay on KM12; 19 µM (inactive) with XF498.

Regarding `N#Cc1ccccc1NC(=O)C(=O)C(C(=O)c1ccccc1F)C1OC(=O)c2ccccc21` (configuration not stated), the GI50 is 17.1 µM (inactive) with SR; 25.8 µM (inactive) with SNB-78; 80.7 µM (inactive) with ACHN; 30.8 µM (inactive) in the assay with DMS-273; 44.3 µM (inactive) in the assay with RXF 393; > 100 µM (inactive) in the assay on HOP-92. In addition, the GI50 is 82 µM (inactive) in the assay with M14; 76.7 µM (inactive) in the assay on KM-20L2; 41.3 µM (inactive) in the assay on SK-OV-3; 35.5 µM (inactive) in the assay with DMS-114; 70.8 µM (inactive) in the assay on A549; 41.2 µM (inactive) with KM12. In addition, the GI50 in the assay on XF498 was 84.7 µM (inactive).

Turning to `CC(=O)O[C@H]1CC[C@@]2(C)C(=CC[C@@H]3[C@@H]2CC[C@]2(C)C(=O)/C(=C\c4ccccc4)C[C@@H]32)C1`, the GI50 with SR is > 100 µM (inactive); with PC-3, 64.7 µM (inactive); with ACHN it was > 100 µM (inactive); in the assay with MDA-N it was > 100 µM (inactive); in the assay with RXF 393, 40.5 µM (inactive); with HOP-92, > 100 µM (inactive). The GI50 in the assay on BT-549, with MDA-MB-231, with M14, in the assay on SK-OV-3, in the assay with NCI/ADR-RES and in the assay on DU-145 was > 100 µM (inactive) each time. Also, the GI50 with A549 and in the assay with KM12 was > 100 µM (inactive) in each case.

For `O=C(NC(Cc1ccc(I)cc1)C(=O)O)c1ccc(Br)cc1` (configuration not stated), the GI50 in the assay on SNB-78 is > 100 µM (inactive); in the assay on DMS-273 it was > 100 µM (inactive); in the assay with RXF 393 it was > 100 µM (inactive); in the assay on HOP-92, 76.7 µM (inactive); in the assay on KM-20L2, > 100 µM (inactive); in the assay on SK-OV-3 it was > 100 µM (inactive). Moreover, the GI50 was > 100 µM (inactive) in the assay on NCI/ADR-RES; 66.2 µM (inactive) with DMS-114; > 100 µM (inactive) in the assay with A549; > 100 µM (inactive) in the assay on KM12; > 77.6 µM (inactive) in the assay with XF498.

As to `Clc1ccccc1/C=C/c1cscn1`, the GI50 in the assay on SR, in the assay with SNB-78, in the assay on ACHN, in the assay with RXF 393, in the assay on M14 and with SK-OV-3 was > 100 µM (inactive) throughout. Also, the GI50 in the assay on DMS-114, in the assay on KM12 and in the assay with XF498 was > 100 µM (inactive) in each case.

For `Cc1cccc(C(O)c2cccnc2)c1O` (configuration not stated), the GI50 with Hs-578T, in the assay on SR, in the assay with PC-3, with ACHN, in the assay with MDA-N and in the assay on RXF 393 was > 100 µM (inactive) each time. Moreover, the GI50 with BT-549, in the assay with MDA-MB-231, in the assay on NCI/ADR-RES, with DU-145, in the assay on A549 and in the assay with KM12 was > 100 µM (inactive) each time.

`CC(C)=CCC(OC(=O)C=C(C)C)c1cc(O)c2c(c1O)C(=O)C=CC2=O` (configuration not stated): the GI50 with SNB-78 is 2.07 µM (inactive); in the assay on DMS-273, 1.98 µM (inactive); in the assay on RXF 393 it was 0.218 µM (active); in the assay on HOP-92, 0.469 µM (active); in the assay on KM-20L2, 1.82 µM (inactive); with SK-OV-3, 5.45 µM (inactive). Besides, the GI50 was 0.406 µM (active) in the assay on NCI/ADR-RES; 1.05 µM (active) in the assay on DMS-114; 5.04 µM (inactive) in the assay with A549; 2.42 µM (inactive) in the assay on KM12; 0.809 µM (active) in the assay on XF498.

For `O=C(c1ccccc1)C1C(c2ccccc2)N1S(=O)(=O)c1ccccc1` (configuration not stated), the GI50 with Hs-578T, in the assay on PC-3, with MDA-N, in the assay with RXF 393, in the assay on BT-549 and in the assay with MDA-MB-231 was > 100 µM (inactive) each time. Besides, the GI50 with M14, in the assay with SK-OV-3, in the assay on NCI/ADR-RES, with DU-145, in the assay with A549 and in the assay on KM12 was > 100 µM (inactive) throughout.

With `Nc1nnc2ccc(Cl)cc2[n+]1[O-]`, the GI50 with Hs-578T is 41.7 µM (inactive); in the assay with SR, 46.3 µM (inactive); in the assay on PC-3, > 100 µM (inactive); with ACHN it was 62.7 µM (inactive); with MDA-N, 37.6 µM (inactive); in the assay on RXF 393 it was 29.8 µM (inactive). Moreover, the GI50 was > 100 µM (inactive) with BT-549; 37.9 µM (inactive) in the assay with MDA-MB-231; 39.1 µM (inactive) in the assay on M14; 28.6 µM (inactive) with SK-OV-3; 40.1 µM (inactive) with NCI/ADR-RES; > 100 µM (inactive) in the assay on DU-145. In addition, in the assay with KM12, the GI50 is > 100 µM (inactive).

In the case of `Clc1nc2c(N3CCCC3)nc(N3CCNCC3)nc2[nH]1`, the GI50 in the assay with Hs-578T is > 100 µM (inactive); in the assay with SR, 16.9 µM (inactive); in the assay on PC-3, 17.8 µM (inactive); in the assay on ACHN, 19.9 µM (inactive); in the assay on MDA-N it was 17.6 µM (inactive); in the assay with RXF 393, 14.1 µM (inactive). Besides, the GI50 with HOP-92 is 16.6 µM (inactive); in the assay on BT-549 it was 29.4 µM (inactive); in the assay with MDA-MB-231, 16.4 µM (inactive); with M14, 19.7 µM (inactive); with SK-OV-3, 18.2 µM (inactive); with NCI/ADR-RES, 37.2 µM (inactive). Moreover, the GI50 was 16.4 µM (inactive) in the assay with DU-145, 17.9 µM (inactive) in the assay with A549 and 18.1 µM (inactive) in the assay with KM12.

Take `O=c1c(-c2ccccc2)c(SCCN2CCCCCC2)n(-c2ccccc2)c(=S)n1-c1ccccc1`: the GI50 was 39.8 µM (inactive) in the assay on Hs-578T; 21.8 µM (inactive) in the assay on SR; 54.6 µM (inactive) with ACHN; 17.2 µM (inactive) with RXF 393; 15.2 µM (inactive) with HOP-92; > 100 µM (inactive) in the assay on BT-549. Also, the GI50 is > 100 µM (inactive) in the assay with SK-OV-3, 68.2 µM (inactive) with NCI/ADR-RES, 23.6 µM (inactive) with DU-145 and 27.3 µM (inactive) with KM12.

For the molecule `CC1=CC[C@H](C)C(C)(C)C1/C=C/C(C)=C/CC[C@@]1(CO)[C@H](CCCO)/C(=C(/C)C=O)CC[C@]1(C)O` (some centres not stated), the GI50 was 0.493 µM (active) with SR; 13.2 µM (inactive) in the assay on SNB-78; 3.68 µM (inactive) with ACHN; 2.2 µM (inactive) in the assay on DMS-273; 14.6 µM (inactive) in the assay with RXF 393; < 0.01 µM (active) with HOP-92. The GI50 in the assay with M14 is 2.07 µM (inactive); in the assay with KM-20L2, 1.82 µM (inactive); with SK-OV-3 it was 25.2 µM (inactive); with A549 it was 0.877 µM (active); with KM12, 1.61 µM (inactive); in the assay with XF498, 7.41 µM (inactive).

As for `COc1cc(/N=N\c2ccc(OC)c(S(=O)(=O)O)c2)c(C)cc1/N=N\c1ccc(/C=C/c2ccc(/N=[N+](/[O-])c3ccc(/C=C/c4ccc(/N=N/c5cc(C)c(/N=N\c6ccc(OC)c(S(=O)(=O)O)c6)cc5OC)cc4S(=O)(=O)O)c(S(=O)(=O)O)c3)cc2S(=O)(=O)O)c(S(=O)(=O)O)c1`, the GI50 with SNB-78 was > 100 µM (inactive); with DMS-273 it was > 68.1 µM (inactive); in the assay on RXF 393 it was > 100 µM (inactive); in the assay with HOP-92, > 75.2 µM (inactive); in the assay with KM-20L2 it was 95.1 µM (inactive); with SK-OV-3, > 100 µM (inactive). The GI50 in the assay on NCI/ADR-RES, with DMS-114, with A549, with KM12 and in the assay on XF498 was > 100 µM (inactive) each time.

With `Cc1ccc(C(=O)Nc2ccc(S(=O)(=O)O)c3cc(S(=O)(=O)O)cc(S(=O)(=O)O)c23)cc1N`, the GI50 in the assay on Hs-578T, with SR, in the assay on PC-3, in the assay with ACHN, in the assay on MDA-N and in the assay on RXF 393 was > 100 µM (inactive) in each case. The GI50 in the assay on BT-549 was > 100 µM (inactive); in the assay on MDA-MB-231, > 100 µM (inactive); in the assay with M14 it was > 100 µM (inactive); in the assay with SK-OV-3, 91.6 µM (inactive); with NCI/ADR-RES it was > 100 µM (inactive); in the assay with DU-145 it was > 100 µM (inactive). In addition, the GI50 in the assay on KM12 is > 100 µM (inactive).

As for `Cc1ccc(NC(=O)S(N)(c2ccc(C)cc2)[N+](=O)[O-])cc1` (configuration not stated), the GI50 with Hs-578T, in the assay on SR, in the assay with PC-3, in the assay with MDA-N, in the assay with RXF 393 and in the assay on HOP-92 was > 100 µM (inactive) throughout. For the same molecule, the GI50 in the assay on BT-549 was > 100 µM (inactive); in the assay with MDA-MB-231 it was > 100 µM (inactive); in the assay with M14, > 100 µM (inactive); in the assay with SK-OV-3, > 100 µM (inactive); with NCI/ADR-RES, > 100 µM (inactive); in the assay with DU-145 it was 89.7 µM (inactive). Moreover, the GI50 in the assay with KM12 is > 100 µM (inactive).
